Measurements reported in PubChem BioAssay AID248 (DTP/NCI, 2004).
Several values for one entry are separate records, joined by “and”; a condition that tells them apart may be missing. Identical values can stand only once. Toxic doses and inconclusive results are not listed. Rule as the data show it: active = T/C of 150% or more; inactive = T/C below 125%.

System: L1210 leukemia ip in BDF1 mice, survival T/C
Assay: NCI In Vivo Anticancer Drug Screen. Data for tumor model L1210 Leukemia (intraperitoneal) in B6D2F1 (BDF1) mice
Conditions: endpoint: mean survival time, higher = longer survival
Method in brief: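 In this screen, tumor-bearing mice given compound are compared to those given vehicle, and their survival values are reported as a treated-to-control quotient.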

[1] = dose: 50.0 mg/kg/injection, schedule: Q01DX001 (ip), vehicle: Klucel (hydroxypropylcellulose) (HPC)
[2] = dose: 100.0 mg/kg/injection, schedule: Q01DX001 (ip), vehicle: Klucel (hydroxypropylcellulose) (HPC)
[3] = dose: 200.0 mg/kg/injection, schedule: Q01DX001 (ip), vehicle: Klucel (hydroxypropylcellulose) (HPC)
[4] = dose: 400.0 mg/kg/injection, schedule: Q01DX001 (ip), vehicle: Klucel (hydroxypropylcellulose) (HPC)
[5] = dose: 100.0 mg/kg/injection, schedule: Q04DX002 (ip), vehicle: Klucel (hydroxypropylcellulose) (HPC)
[6] = dose: 200.0 mg/kg/injection, schedule: Q04DX002 (ip), vehicle: Klucel (hydroxypropylcellulose) (HPC)
[7] = dose: 50.0 mg/kg/injection, schedule: Q01DX009 (ip), vehicle: Klucel (hydroxypropylcellulose) (HPC)
[8] = dose: 100.0 mg/kg/injection, schedule: Q01DX009 (ip), vehicle: Klucel (hydroxypropylcellulose) (HPC)
[9] = dose: 200.0 mg/kg/injection, schedule: Q01DX009 (ip), vehicle: Klucel (hydroxypropylcellulose) (HPC)
[10] = dose: 100.0 mg/kg/injection, schedule: Q04DX003 (ip), vehicle: Klucel (hydroxypropylcellulose) (HPC)
[11] = dose: 200.0 mg/kg/injection, schedule: Q04DX003 (ip), vehicle: Klucel (hydroxypropylcellulose) (HPC)
[12] = dose: 400.0 mg/kg/injection, schedule: Q01DX009 (ip), vehicle: Klucel (hydroxypropylcellulose) (HPC)
[13] = dose: 400.0 mg/kg/injection, schedule: Q04DX003 (ip), vehicle: Klucel (hydroxypropylcellulose) (HPC)
[14] = dose: 100.0 mg/kg/injection, schedule: Q01DX009 (ip), vehicle: saline with Tween-80
[15] = dose: 100.0 mg/kg/injection, schedule: Q04DX003 (ip), vehicle: saline with Tween-80
[16] = dose: 200.0 mg/kg/injection, schedule: Q01DX009 (ip), vehicle: saline with Tween-80
[17] = dose: 200.0 mg/kg/injection, schedule: Q04DX003 (ip), vehicle: saline with Tween-80
[18] = dose: 400.0 mg/kg/injection, schedule: Q04DX003 (ip), vehicle: saline with Tween-80
[19] = dose: 100.0 mg/kg/injection, schedule: Q01DX001 (ip), vehicle: carboxymethylcellulose (CMC)
[20] = dose: 200.0 mg/kg/injection, schedule: Q01DX001 (ip), vehicle: carboxymethylcellulose (CMC)
[21] = dose: 400.0 mg/kg/injection, schedule: Q01DX001 (ip), vehicle: carboxymethylcellulose (CMC)

Measured: T/C

CC(=O)Oc1cc(C(C)=O)c(O)c2ccccc12
inactive: dose: 100.0 mg/kg/injection, schedule: Q01DX001 (ip), vehicle: water 95 % of control | dose: 200.0 mg/kg/injection, schedule: Q01DX001 (ip), vehicle: water 93 % of control

CCCCCCCCCCCCCCCCNC(=S)N/N=C/C(C)=N/NC(=S)NCCCCCCCCCCCCCCCC
inactive: dose: 15.0 mg/kg/injection, schedule: Q01DX Z (ip), vehicle: carboxymethylcellulose (CMC) 101 % of control | dose: 30.0 mg/kg/injection, schedule: Q01DX Z (ip), vehicle: carboxymethylcellulose (CMC) 107 % of control | dose: 60.0 mg/kg/injection, schedule: Q01DX Z (ip), vehicle: carboxymethylcellulose (CMC) 100 % of control and 104 % of control | dose: 120.0 mg/kg/injection, schedule: Q01DX Z (ip), vehicle: carboxymethylcellulose (CMC) 95 % of control and 98 % of control | dose: 240.0 mg/kg/injection, schedule: Q01DX Z (ip), vehicle: carboxymethylcellulose (CMC) 100 % of control

CC(C)(COS(C)(=O)=O)COS(C)(=O)=O
inactive: [1] 95 % of control | [2] 93 % of control | [3] 93 % of control | [4] 101 % of control

NC(=O)Nc1ccc(Br)cc1Br
inactive: [5] 102 % of control | [6] 94 % of control

c1ccc2c(C3OCC4(CC4)CO3)cccc2c1
inactive: dose: 25.0 mg/kg/injection, schedule: Q01DX001 (ip), vehicle: Klucel (hydroxypropylcellulose) (HPC) 100 % of control | [1] 96 % of control | [2] 105 % of control

CC(=O)Nc1cccc(OCc2ccc([N+](=O)[O-])cc2)c1
inactive: [7] 111 % of control | [8] 97 % of control | [9] 97 % of control

CN(C)c1ccc(C(=O)Oc2ccc([N+](=O)[O-])cc2)cc1
inactive: [8] 90 % of control | [10] 95 % of control | [9] 101 % of control | [11] 98 % of control | [12] 102 % of control | [13] 96 % of control

CCCNC(=O)Oc1ccc2ccccc2c1
inactive: dose: 100.0 mg/kg/injection, schedule: Q01DX001 (ip), vehicle: other 103 % of control | dose: 100.0 mg/kg/injection, schedule: Q01DX009 (ip), vehicle: other 93 % of control and 100 % of control | [5] 95 % of control | dose: 100.0 mg/kg/injection, schedule: Q04DX002 (ip), vehicle: other 100 % of control and 101 % of control | dose: 200.0 mg/kg/injection, schedule: Q01DX001 (ip), vehicle: other 94 % of control | dose: 200.0 mg/kg/injection, schedule: Q01DX009 (ip), vehicle: other 94 % of control and 116 % of control | [6] 103 % of control | dose: 200.0 mg/kg/injection, schedule: Q04DX002 (ip), vehicle: other 93 % of control and 95 % of control | dose: 400.0 mg/kg/injection, schedule: Q01DX001 (ip), vehicle: other 101 % of control | dose: 400.0 mg/kg/injection, schedule: Q01DX009 (ip), vehicle: other 93 % of control and 94 % of control | dose: 400.0 mg/kg/injection, schedule: Q04DX002 (ip), vehicle: Klucel (hydroxypropylcellulose) (HPC) 100 % of control | dose: 400.0 mg/kg/injection, schedule: Q04DX002 (ip), vehicle: other 93 % of control and 96 % of control

CCCCCCCCC(C)NCCOC(=O)c1ccc(N)cc1 (stereo not given)
inactive: dose: 9.38 mg/kg/injection, schedule: Q01DX001 (ip), vehicle: other 102 % of control | dose: 18.75 mg/kg/injection, schedule: Q01DX001 (ip), vehicle: other 101 % of control | dose: 37.5 mg/kg/injection, schedule: Q01DX001 (ip), vehicle: other 98 % of control

O=[N+]([O-])c1ccc2c(c1)C(Br)c1ccccc1-2 (stereo not given)
inactive: [8] 89 % of control | [10] 95 % of control | [9] 94 % of control | [11] 92 % of control | [13] 94 % of control

OCC1OC(n2cc(Cl)c3cncnc32)C(O)C1O (stereo not given)
inactive: dose: 50.0 mg/kg/injection, schedule: Q01DX005 (ip), vehicle: saline 101 % of control

CNc1ncccn1
inactive: dose: 50.0 mg/kg/injection, schedule: Q01DX001 (ip), vehicle: saline 109 % of control | dose: 100.0 mg/kg/injection, schedule: Q01DX001 (ip), vehicle: saline 103 % of control | dose: 200.0 mg/kg/injection, schedule: Q01DX001 (ip), vehicle: saline 107 % of control | dose: 400.0 mg/kg/injection, schedule: Q01DX001 (ip), vehicle: saline 107 % of control

CCOC(=O)C(=Cc1c[nH]c2ccccc12)C(=O)OCC
inactive: [14] 108 % of control | [15] 96 % of control | [16] 90 % of control | [17] 96 % of control | dose: 400.0 mg/kg/injection, schedule: Q01DX009 (ip), vehicle: saline with Tween-80 92 % of control | [18] 96 % of control

CN(C)c1ccc(N=Nc2ccc(Cl)c(Cl)c2)cc1
inactive: dose: 50.0 mg/kg/injection, schedule: Q01DX009 (ip), vehicle: saline with Tween-80 98 % of control | [14] 95 % of control | [16] 87 % of control

BrC1C2CC3C(C2)C13 (stereo not given)
inactive: [8] 104 % of control | [10] 100 % of control | [9] 95 % of control | [11] 95 % of control | [12] 98 % of control | [13] 93 % of control

CCCCCCCCCC(=O)N(CCCC)CCCC
inactive: [7] 102 % of control | [8] 105 % of control | dose: 100.0 mg/kg/injection, schedule: Q04DX002 (ip), vehicle: saline 95 % of control | [9] 109 % of control | dose: 200.0 mg/kg/injection, schedule: Q04DX002 (ip), vehicle: saline 101 % of control | dose: 400.0 mg/kg/injection, schedule: Q04DX002 (ip), vehicle: saline 88 % of control

CC(C)(c1ccc(O)cc1)c1ccc(O)cc1
inactive: [15] 96 % of control | [17] 87 % of control | [18] 91 % of control

FC(F)(F)S.[Hg]
inactive: dose: 5.0 mg/kg/injection, schedule: Q01DX009 (ip), vehicle: saline 86 % of control | dose: 10.0 mg/kg/injection, schedule: Q01DX009 (ip), vehicle: saline 93 % of control

CCOC(=O)C(COS(C)(=O)=O)NS(=O)(=O)c1ccc(C)cc1 (stereo not given)
inactive: [2] 98 % of control | [3] 104 % of control | [4] 95 % of control

CCOC(=O)c1cc(N/N=C2/CCCNC2=O)c[nH]1
inactive: [19] 99 % of control | [20] 103 % of control | [21] 94 % of control

Cc1ccc(N=C(N)NC#N)cc1
inactive: [15] 89 % of control | [17] 86 % of control | [18] 88 % of control

CC12CC(Br)C(Br)CC1(C)O2 (stereo not given)
inactive: dose: 25.0 mg/kg/injection, schedule: Q04DX002 (ip), vehicle: gum acacia 96 % of control | dose: 50.0 mg/kg/injection, schedule: Q04DX002 (ip), vehicle: gum acacia 100 % of control | dose: 100.0 mg/kg/injection, schedule: Q04DX002 (ip), vehicle: gum acacia 104 % of control

COc1cccc(CCOC(C)=O)c1
inactive: dose: 100.0 mg/kg/injection, schedule: Q04DX002 (ip), vehicle: saline with Tween-80 94 % of control | dose: 200.0 mg/kg/injection, schedule: Q04DX002 (ip), vehicle: saline with Tween-80 108 % of control | dose: 400.0 mg/kg/injection, schedule: Q04DX002 (ip), vehicle: saline with Tween-80 97 % of control

CCOC(=O)C1NC(=O)C(C(=O)OCC)C1C(C)C (stereo not given)
inactive: dose: 75.0 mg/kg/injection, schedule: Q04DX003 (ip), vehicle: Klucel (hydroxypropylcellulose) (HPC) 102 % of control | [2] 103 % of control | dose: 150.0 mg/kg/injection, schedule: Q04DX003 (ip), vehicle: Klucel (hydroxypropylcellulose) (HPC) 98 % of control | [3] 103 % of control | dose: 300.0 mg/kg/injection, schedule: Q04DX003 (ip), vehicle: Klucel (hydroxypropylcellulose) (HPC) 100 % of control | [4] 109 % of control

CSc1nc(N)c(N=Nc2ccc(S(=O)(=O)Nc3ccccn3)cc2)c(=O)[nH]1
inactive: [19] 92 % of control | [20] 101 % of control | [21] 95 % of control
